Here are results for 13 compounds from article PMC11367390 (RSC Advances, 2024).

Each structure is given as a SMILES string.

Broadly, the inhibition is the change of the read-out against control, counted positive when it falls. For orientation: IC50 means the concentration at which inhibition is half-maximal. The low end stands for higher potency, the high end for lower potency.

The target of this assay is α-Glucosidase from Saccharomyces cerevisiae (Saccharomyces cerevisiae, UniProt P53341). The experiment in a line: In vitro α-glucosidase inhibition study. The following applies: for inhibition at 25 µM: pH 6.8, read-out: Inhibition at 25 μM (%); for IC50: IC50, μM, average value ± standard deviation, p-nitrophenyl α-D-glucoside substrate, pH 6.8, 37 °C.
Chain of α-Glucosidase from Saccharomyces cerevisiae (P53341 whole entry): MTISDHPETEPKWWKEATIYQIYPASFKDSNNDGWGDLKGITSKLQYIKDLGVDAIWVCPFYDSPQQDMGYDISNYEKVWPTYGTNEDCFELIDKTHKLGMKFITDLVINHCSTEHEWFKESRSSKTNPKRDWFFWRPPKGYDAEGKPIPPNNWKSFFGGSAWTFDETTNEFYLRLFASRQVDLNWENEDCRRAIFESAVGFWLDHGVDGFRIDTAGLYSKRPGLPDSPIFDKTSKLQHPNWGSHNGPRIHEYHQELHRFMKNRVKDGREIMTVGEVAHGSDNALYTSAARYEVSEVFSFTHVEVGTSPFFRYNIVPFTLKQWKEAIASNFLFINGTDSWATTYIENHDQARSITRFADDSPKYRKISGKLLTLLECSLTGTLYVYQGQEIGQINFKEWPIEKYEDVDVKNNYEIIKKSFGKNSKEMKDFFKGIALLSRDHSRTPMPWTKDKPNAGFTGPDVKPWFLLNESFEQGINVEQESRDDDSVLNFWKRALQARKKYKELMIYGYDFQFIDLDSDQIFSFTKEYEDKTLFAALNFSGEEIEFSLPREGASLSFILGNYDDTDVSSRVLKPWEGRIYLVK

Turning to `O=c1c(-c2ccc(OC(F)(F)F)cc2)coc2cc(O)ccc12` [Compound 6j, 7-hydroxy-4′-trifluoromethoxyisoflavone], the inhibition at 25 µM stood at 39%.

Regarding `Cc1cc(=O)oc2c(Cn3ccnc3)c(O)ccc12` [Compound 9b], the IC50 is 23.6 ± 1.8 µM and the inhibition at 25 µM stood at 53.4%.

For the compound `O=c1c(-c2ccc(O)cc2)coc2c(Cn3ccnc3)c(O)ccc12` [Compound 9d], inhibition was half-maximal at 27 ± 0.2 µM (IC50) and the inhibition at 25 µM is 42%.

With `Cc1cc(=O)oc2c(Cn3cnc4ccccc43)c(O)ccc12` [Compound 10b], the IC50 is 21.1 ± 0.7 µM and the inhibition at 25 µM worked out at 69.3%.

For `COc1ccc(-c2coc3c(Cn4cnc5ccccc54)c(O)ccc3c2=O)cc1` [Compound 10d], it took 20.6 ± 2.1 µM to reach half-maximal inhibition (IC50) and the inhibition at 25 µM is 64.6%.

As for `COc1ccc(-c2c(C)oc3c(Cn4cnc5ccccc54)c(O)ccc3c2=O)cc1` [Compound 10f], the IC50 was determined as 25.5 ± 7.9 µM and the inhibition at 25 µM is 48.6%.

On to `O=c1c(-c2ccc(OC(F)(F)F)cc2)coc2c(Cn3cnc4ccccc43)c(O)ccc12` [Compound 10h], for which the IC50 worked out at 9.5 ± 1.6 µM and the inhibition at 25 µM came to 99.1%.

Consider `O=c1c(-c2ccc(OC(F)(F)F)cc2)coc2c(Cn3cccn3)c(O)ccc12` [Compound 11j], for which half-maximal inhibition (IC50) required 14.3 ± 2 µM and the inhibition at 25 µM came to 84.1%.

As to `Cc1cc(C)n(Cc2c(O)ccc3c(=O)c(-c4ccc(O)cc4)coc23)n1` [Compound 12c], the half-inhibitory concentration (IC50) is 27.4 ± 1.9 µM and the inhibition at 25 µM is 42.8%.

Regarding `COc1ccc(-c2coc3c(Cn4nc(C)cc4C)c(O)ccc3c2=O)cc1` [Compound 12d], the IC50 came out at 20.9 ± 2.5 µM and the inhibition at 25 µM came to 67.3%.

For the compound `Cc1cc(C)n(Cc2c(O)ccc3c(=O)c(-c4ccc(OC(F)(F)F)cc4)coc23)n1` [Compound 12i], half-maximal inhibition (IC50) was put at 5.8 ± 0.2 µM and the inhibition at 25 µM is 94%.

For the compound `COc1ccc(-c2coc3c(Cn4ncc5ccccc54)c(O)ccc3c2=O)cc1` [Compound 13b], the half-inhibitory concentration (IC50) was 17.1 ± 2.8 µM and the inhibition at 25 µM is 73%.

As to `COc1ccc(-c2coc3c(Cn4cc5ccccc5n4)c(O)ccc3c2=O)cc1` [Compound 14b], the IC50 came out at 23.9 ± 2.3 µM and the inhibition at 25 µM worked out at 50.3%.
